Experimental data taken from patent US11052092B2, “N-{[2-(piperidin-1-yl)phenyl](phenyl)methyl}-2-(3-oxo-3,4-dihydro-2H-1,4-benzoxazin-7-yl)acetamide derivatives and related compounds as ROR-gamma modulators for treating autoimmune diseases” (Genfit, priority 2017, dated 2021).
Counter-ions that a name gives are not always drawn.

molecular target: T1, human RORγt (Homo sapiens, UniProt P51449); assay: RORE Luciferase/RORγt transactivation assay; assay type: cell-based; conditions: COS-7 cells transfected with human IL-17 promoter luciferase reporter and RORγt plasmid; 20 h with compound; read-out: IC50, RORγt activity inhibition
T1 construct: the full-length cDNA of human RORγt; expressed in transfected cells; host or cells: COS-7 (monkey kidney)
T1 sequence (P51449 1-497 isoform P51449-2): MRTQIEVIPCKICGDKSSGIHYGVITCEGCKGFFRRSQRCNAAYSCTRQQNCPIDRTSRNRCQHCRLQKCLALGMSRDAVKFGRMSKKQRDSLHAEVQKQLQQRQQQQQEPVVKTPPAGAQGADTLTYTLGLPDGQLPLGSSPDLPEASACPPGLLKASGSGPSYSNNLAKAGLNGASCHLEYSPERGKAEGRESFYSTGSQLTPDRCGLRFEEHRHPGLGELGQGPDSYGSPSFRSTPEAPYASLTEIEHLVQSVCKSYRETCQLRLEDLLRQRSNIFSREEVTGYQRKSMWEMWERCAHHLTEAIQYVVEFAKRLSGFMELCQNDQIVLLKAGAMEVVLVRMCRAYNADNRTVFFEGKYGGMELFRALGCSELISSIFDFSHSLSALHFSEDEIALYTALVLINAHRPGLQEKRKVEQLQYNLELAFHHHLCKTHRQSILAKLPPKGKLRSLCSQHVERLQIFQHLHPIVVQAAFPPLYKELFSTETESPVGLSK
Protocol: It is well known that RORγ binds to a conserved non-coding sequence (CNS) enhancer element in the IL-17 promoter.
Culture medium was changed every 2 days.
The 4.3 Kb human IL-17 promoter containing the RORγ-specific CNS enhancer element was PCR amplified from human genomic DNA and cloned into a pGL3-TKLuc2Cp reporter plasmid.
The luciferase reporter plasmid and the RORγt overexpression plasmid were transfected into COS-7 cell line using 4 μLJetPEI™/μg of DNA. Briefly, 150 ng of DNA (ration ½ between RORE-Tk Luc2Cp and cDNA RORγt or the empty vector for the negative control) was served to transfect adherent COS-7 cells in a […] culture flask, in complete medium (see cos-7 cell line culture).
Cells were then detached (using trypsin) and washed by centrifugation at 300 g for 10 minutes. Cell pellet was resuspended in serum free/phenol red free DMEM and seeded in 384 well plates at a density of 10000 cells/well and then incubated for 4 h at 37° C.
Compounds were dissolved in 100% DMSO to obtain 10 mM stock solutions. For each compound, test concentrations were diluted in serum free/phenol red free DMEM using the Genesis Freedom 200™ (TECAN) and added to the cells to obtain a 0.3% DMSO final concentration (in a final volume of 40 μL per well).
The luciferase activity was then measured with 40 μL/well steady-Glo Luciferase assay system (Promega, Madison, Wis.) and after incubation at room temperature for 30 minutes. The luminescence was estimated using the Ultra384 reader (TECAN). Data were collected and analyzed using GraphPad Prism software (GraphPad Software V5.02, San Diego Calif. USA). IC50 in μM and Emax in % were reported for each compound.

Row | SMILES | IC50
1 | CC(C)CC(NC(=O)Cc1ccc2c(c1)OCC(=O)N2)c1ccccc1N1CCCCC1 (centres unmarked) [Cpd. 6, N-{3-methyl-1-[2-(piperidin-1-yl)phenyl]butyl}-2-(3-oxo-3,4-dihydro-2H-1,4-benzoxazin-7-yl)acetamide] | 1000 to 10000 nM
2 | Cc1ccc(C(NC(=O)Cc2ccc3c(c2)CS(=O)(=O)N3CC2CCOCC2)c2ccc(C)o2)c(N2CCCCC2)c1 (centres unmarked) [Cpd. 167, N-{[4-methyl-2-(piperidin-1-yl)phenyl](5-methylfuran-2-yl)methyl}-2-[1-(oxan-4-ylmethyl)-2,2-dioxo-1,3-dihydro-2,1-benzothiazol-5-yl]acetamide] | 10 to 100 nM

The remaining lines, values ahead:

Row | IC50 | SMILES
3 | 1000 to 10000 nM | Cc1ccc(C(NC(=O)C2(c3ccc4c(c3)OCC(=O)N4)CC2)c2ccc(Cl)cc2)c(C)c1 (centres unmarked) [Cpd. 140, N-[(4-chlorophenyl)(2,4-dimethylphenyl)methyl]-1-(3-oxo-3,4-dihydro-2H-1,4-benzoxazin-7-yl)cyclopropane-1-carboxamide]
4 | 10 to 100 nM | Cc1ccc(C(NC(=O)C2(c3ccc4c(c3)CS(=O)(=O)N4C)CC2)c2ccc(Cl)o2)c(C)c1 (centres unmarked) [Cpd. 160, N-[(5-chlorofuran-2-yl)(2,4-dimethylphenyl)methyl]-1-(1-methyl-2,2-dioxo-1,3-dihydro-2,1-benzothiazol-5-yl)cyclopropane-1-carboxamide]
5 | 10 to 100 nM | Cc1ccc(C(NC(=O)C2(c3ccc4c(c3)OCO4)CC2)c2ccc(C)o2)c(C)c1 (centres unmarked) [Cpd. 137, 1-(2H-1,3-benzodioxol-5-yl)-N-[(2,4-dimethylphenyl)(5-methylfuran-2-yl)methyl]cyclopropane-1-carboxamide]
6 | 100 to 1000 nM | Cc1cnc(C(NC(=O)C2(c3ccc4c(c3)OCS(=O)(=O)N4)CC2)c2ccc(C)o2)c(C)c1 (centres unmarked) [Cpd. 153, N-[(3,5-dimethylpyridin-2-yl)(5-methylfuran-2-yl)methyl]-1-(2,2-dioxo-1,3-dihydro-4,2,1-benzoxathiazin-6-yl)cyclopropane-1-carboxamide]
7 | 10 to 100 nM | CCN1c2ccc(C3(C(=O)NC(c4ccc(C)o4)c4ccc(C)cc4C)CC3)cc2CS1(=O)=O (centres unmarked) [Cpd. 132, N-[(2,4-dimethylphenyl)(5-methylfuran-2-yl)methyl]-1-(1-ethyl-2,2-dioxo-1,3-dihydro-2,1-benzothiazol-5-yl)cyclopropane-1-carboxamide]

test system: not given; assay: not given; conditions: not given

Row | SMILES | melting point
8 | Cc1ccc(C(NC(=O)Cc2ccc3c(ccn3CCC(=O)OC(C)(C)C)c2)c2ccc(C)o2)c(Br)c1 (centres unmarked) (as salt: HCl) [Cpd. 100, tert-butyl 3-[5-({[(2-bromo-4-methylphenyl)(5-methylfuran-2-yl)methyl]carbamoyl}methyl)-1H-indol-1-yl]propanoate] | 149 °C
9 | Cc1ccc(C(NC(=O)Cc2ccc3c(ccn3CCC(=O)OC(C)(C)C)c2)c2ccc(C)o2)c(N2CCCCC2)c1 (centres unmarked) (as salt: HCl) [Cpd. 96, tert-butyl 3-{5-[({[4-methyl-2-(piperidin-1-yl)phenyl](5-methylfuran-2-yl)methyl}carbamoyl)methyl]-1H-indol-1-yl}propanoate] | 50 °C
10 | Cc1ccc(C(NC(=O)Cc2ccc3[nH]cc(C(=O)N4CCOCC4)c3c2)c2ccc(C)o2)c(N2CCCCC2)c1 (centres unmarked) (as salt: HCl) [Cpd. 120, N-{[4-methyl-2-(piperidin-1-yl)phenyl](5-methylfuran-2-yl)methyl}-2-[3-(morpholine-4-carbonyl)-1H-indol-5-yl]acetamide] | 124 °C
11 | Cc1ccc(C(NC(=O)Cc2ccc3[nH]c(C)nc3c2)c2ccc(C)o2)c(Br)c1 (centres unmarked) (as salt: HCl) [Cpd. 77, N-[(2-bromo-4-methylphenyl)(5-methylfuran-2-yl)methyl]-2-(2-methyl-1H-1,3-benzodiazol-5-yl)acetamide] | 209 °C
12 | Cc1ccc(C(NC(=O)Cc2ccc3c(c2)C(C)(O)C(=O)N3C)c2ccc(C)o2)c(N2CCCCC2)c1 (centres unmarked) (as salt: HCl) [Cpd. 39, 2-(3-hydroxy-1,3-dimethyl-2-oxo-2,3-dihydro-1H-indol-5-yl)-N-{[4-methyl-2-(piperidin-1-yl)phenyl](5-methylfuran-2-yl)methyl}acetamide] | 103 °C
13 | Cc1ccc(C(NC(=O)Cc2ccc3c(c2)CCN3C(=O)C2CC2)c2ccc(C)o2)c(N2CCCCC2)c1 (centres unmarked) (as salt: HCl) [Cpd. 123, 2-(1-cyclopropanecarbonyl-2,3-dihydro-1H-indol-5-yl)-N-{[4-methyl-2-(piperidin-1-yl)phenyl](5-methylfuran-2-yl)methyl}acetamide] | 94 °C
14 | Cc1ccc(C(NC(=O)Cc2ccc3c(c2)CS(=O)(=O)N3CC2CCOCC2)c2ccc(C)o2)c(C)c1 (centres unmarked) (as salt: HCl) [Cpd. 166, N-[(2,4-dimethylphenyl)(5-methylfuran-2-yl)methyl]-2-[1-(oxan-4-ylmethyl)-2,2-dioxo-1,3-dihydro-2,1-benzothiazol-5-yl]acetamide] | 83 °C
15 | Cc1ccc(C(NC(=O)C2(c3ccc4c(c3)CN(S(C)(=O)=O)C4)CC2)c2ccc(C)o2)c(N2CCCC2)c1 (centres unmarked) (as salt: HCl) [Cpd. 73, 1-(2-methanesulfonyl-2,3-dihydro-1H-isoindol-5-yl)-N-{[4-methyl-2-(pyrrolidin-1-yl)phenyl](5-methylfuran-2-yl)methyl}cyclopropane-1-carboxamide] | 84 °C
16 | CCOc1nc2cc(CC(=O)NC(c3ccccc3)c3ccc(C)cc3Br)ccc2[nH]1 (centres unmarked) (as salt: HCl) [Cpd. 90, N-[(2-bromo-4-methylphenyl)(phenyl)methyl]-2-(2-ethoxy-1H-1,3-benzodiazol-5-yl)acetamide] | 189 °C

More lines, now with the values ahead:

Row | melting point | SMILES
17 | 71 °C | Cc1ccc(C(NC(=O)C2(c3ccc4c(c3)OCS(=O)(=O)N4C)CC2)c2ccc(C)o2)c(Br)c1 (centres unmarked) (as salt: HCl) [Cpd. 173, N-[(2-bromo-4-methylphenyl)(5-methylfuran-2-yl)methyl]-1-(1-methyl-2,2-dioxo-1,3-dihydro-4,2,1-benzoxathiazin-6-yl)cyclopropane-1-carboxamide]
18 | 89 °C | Cc1ccc(C(NC(=O)C2(c3ccc4c(c3)OCC(=O)N4)CC2)c2ccc(C)o2)c(C)c1 (centres unmarked) (as salt: HCl) [Cpd. 59, N-[(2,4-dimethylphenyl)(5-methylfuran-2-yl)methyl]-1-(3-oxo-3,4-dihydro-2H-1,4-benzoxazin-7-yl)cyclopropane-1-carboxamide]
19 | 115 °C | COc1ccc(C(NC(=O)C2(c3ccc4c(c3)OCS(=O)(=O)N4)CC2)c2ccc(C)o2)c(Br)c1 (centres unmarked) (as salt: HCl) [Cpd. 147, N-[(2-bromo-4-methoxyphenyl)(5-methylfuran-2-yl)methyl]-1-(2,2-dioxo-1,3-dihydro-4,2,1-benzoxathiazin-6-yl)cyclopropane-1-carboxamide]
20 | 192 °C | Cc1ccc(C(NC(=O)C2(c3ccc4c(c3)C(=O)C(=O)N4)CC2)c2ccc(C)o2)c(C)c1 (centres unmarked) (as salt: HCl) [Cpd. 125, N-[(2,4-dimethylphenyl)(5-methylfuran-2-yl)methyl]-1-(2,3-dioxo-2,3-dihydro-1H-indol-5-yl)cyclopropane-1-carboxamide]
21 | 55 °C | Cc1ccc(C(NC(=O)C2(c3ccc4c(c3)OCO4)CC2)c2ccc(C)o2)c(Br)c1 (centres unmarked) (as salt: HCl) [Cpd. 161, 1-(2H-1,3-benzodioxol-5-yl)-N-[(2-bromo-4-methylphenyl)(5-methylfuran-2-yl)methyl]cyclopropane-1-carboxamide]
22 | 70 °C | Cc1ccc(C(NC(=O)C2(c3ccc4c(c3)CCN4C(=O)C3CC3)CC2)c2ccc(C)o2)c(C)c1 (centres unmarked) (as salt: HCl) [Cpd. 95, 1-(1-cyclopropanecarbonyl-2,3-dihydro-1H-indol-5-yl)-N-[(2,4-dimethylphenyl)(5-methylfuran-2-yl)methyl]cyclopropane-1-carboxamide]
23 | 70 °C | Cc1ccc(C(NC(=O)C2(c3ccc4[nH]cc(CCO)c4c3)CC2)c2ccc(Cl)o2)c(C)c1 (centres unmarked) (as salt: HCl) [Cpd. 62, N-[(5-chlorofuran-2-yl)(2,4-dimethylphenyl)methyl]-1-[3-(2-hydroxyethyl)-1H-indol-5-yl]cyclopropane-1-carboxamide]
